# Laboratory results reported in patent US7253211B2, “(R)-chiral halogenated substituted fused heterocyclic amino compounds useful for inhibiting cholesterol ester transfer protein activity” (Pfizer Inc., priority 1999, dated 2007).
# Experiments:
# CETP = assay: Assay of CETP Inhibition In Vivo: CETP-mediated transfer in hamster; design: species or system golden Syrian hamsters; conditions: single oral dose 10 mpk
# Method: Assay of CETP Inhibition In Vivo.
# Male golden Syrian hamsters were maintained on a diet of chow containing 0.24% cholesterol for at least two weeks prior to the study. For animals receiving intravenous dosing immediately before the experiment, animals were anesthetized with pentobarbital. Anesthesia was maintained throughout the experiment. In-dwelling catheters were inserted into the jugular vein and carotid artery. At the start of the experiment all animals received 0.2 mL of a solution containing [^3H]CE-HDL into the jugular vein. […] After centrifugation, the resulting supernatant (25 μL) containing the HDL was analyzed for radioactivity using a liquid scintillation counter.
# (§1) The percentage [^3H]CE transferred from HDL to LDL and VLDL (% transfer) was calculated based on the total radioactivity in equivalent plasma samples before precipitation.
# Alternatively, conscious, non-anesthetized animals received an oral gavage dose of test compound as a suspension in 0.1% methyl cellulose in water. At a time determined for each compound at which plasma levels of the test substance reached their peak (Cmax) after oral dosing, the animals were anesthetized with pentobarbital and then dosed with 0.2 mL of a solution containing [^3H]CE-HDL into the jugular vein as described above. […]
# human CETP (hCETP) = biological target: T1, human CETP (hCETP) (Homo sapiens, UniProt P11597); assay: Assay of CETP Inhibition In Vivo: CETP-mediated transfer in hCETP mice; conditions: single oral dose 60 mpk
# T1 construct: expressed in transfected cells; host or cells: transgenic C57Bl/6 mice homozygous for the hCETP gene
# T1 sequence (P11597 18-493): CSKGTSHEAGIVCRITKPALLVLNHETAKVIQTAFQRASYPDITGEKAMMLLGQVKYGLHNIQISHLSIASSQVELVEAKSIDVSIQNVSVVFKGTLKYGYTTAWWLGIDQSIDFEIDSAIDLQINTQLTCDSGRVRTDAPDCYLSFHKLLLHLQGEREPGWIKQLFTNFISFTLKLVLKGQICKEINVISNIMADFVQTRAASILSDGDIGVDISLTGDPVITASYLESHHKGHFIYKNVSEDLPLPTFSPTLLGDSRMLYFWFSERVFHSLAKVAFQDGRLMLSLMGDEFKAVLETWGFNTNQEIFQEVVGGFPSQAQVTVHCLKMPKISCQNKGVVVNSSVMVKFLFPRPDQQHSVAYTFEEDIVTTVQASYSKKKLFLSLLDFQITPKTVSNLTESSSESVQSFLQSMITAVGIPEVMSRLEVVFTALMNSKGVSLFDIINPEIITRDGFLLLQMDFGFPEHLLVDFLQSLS
# Description: C57B1/6 mice that were homozygous for the hCETP gene were maintained on a high fat chow diet, such as TD 88051, as described by Nishina et al. (J Lipid Res., 31, 859-869 (1990)) for at least two weeks prior to the study. Mice received an oral gavage dose of test compound as a suspension in 0.1% methyl cellulose in water or an intravenous bolus injection of test compound in 10% ethanol and 90% polyethylene glycol. Control animals received the vehicle solution without test compound by oral gavage or by an intravenous bolus injection. At the start of the experiment all animals received 0.05 mL of a solution containing [^3H]CE-HDL into the tail vein. [^3H]CE-HDL is a preparation of human HDL containing tritium-labeled cholesteryl ester, and was prepared according to the method of Glenn et al. (Meth. Enzymol., 263, 339-351 (1996)). After 30 minutes, the animals were exsanguinated and blood collected in standard microtainer tubes containing ethylenediamine tetraacetic acid. Blood samples were mixed well and kept on ice until the completion of the experiment. […] The plasma was separated and analyzed by gel filtration chromatography and the relative proportion of [^3H]CE in the VLDL, LDL and HDL regions was determined.
# as §1
# plasma HDL [1] = assay: Assay of Plasma HDL Elevation In Vivo: lipoprotein profile in hamster; design: species or system Syrian Golden hamsters; conditions: oral dose 30 mpk qd, 5 days
# Method: Assay of Plasma HDL Elevation In Vivo.
# Syrian Golden hamsters were made hypercholesterolemic by feeding cholesterol supplemented chow for a minimum of two weeks, as described above. Test compounds were administered orally in selected aqueous or oil based vehicles for up to 1 week. Serum was obtained and analyzed by precipitation or size exclusion chromatography for the relative abundance of VLDL, LDL and HDL.
# plasma HDL [2] = assay: Assay of Plasma HDL Elevation In Vivo: lipoprotein profile in hCETP mice; design: species or system C57b1 mouse expressing human CETP; conditions: oral dose 30 mpk qd, 5 days
# Method: Alternatively, a strain of C57b1 mouse was made to transgenicaly express human CETP. […] The hCETP mice were made hypercholesterolemic by feeding cholesterol and fat supplemented chow for a minimum of two weeks, as described above. Test compounds were administered orally in selected aqueous or oil based vehicles for up to 1 week. Serum was obtained and analyzed by size exclusion chromatography for the relative abundance of VLDL, LDL and HDL.
# plasma HDL [3] = assay: Assay of Plasma HDL Elevation In Vivo: cynomologous monkeys; conditions: oral gavage 10 mpk q.d. up to 11 days, corn oil based vehicle
# Method: Alternatively, cynomologous monkeys were maintained on a normal chow diet. […] Plasma levels of drug were detected throughout the experiment in treated animals at ranges of 0.1-1.5 μg/mL. Periodically, plasma samples were taken and analyzed for total cholesterol and HDL.
# plasma HDL [4] = assay: Assay of Plasma HDL Elevation In Vivo: rabbits
# Method: Alternatively, rabbits were maintained on a normal chow diet. […] Plasma concentrations of drug were detected throughout the duration of the pump infusion in treated animals and averaged 1.2 μg/mL. Periodically, plasma samples were taken and analyzed for triglycerides, total cholesterol, and HDL.
# [5] = Alzet pump 30 mg/day/animal, after fourteen days
structure (smiles),measurement,setting,value
"CCc1cc(Oc2cccc(N(Cc3cccc(OC(F)(F)C(F)F)c3)C[C@@H](O)C(F)(F)F)c2)ccc1Cl [Example 8, (2R)-3-[[3-(4-chloro-3-ethylphenoxy)phenyl][[3-(1,1,2,2-tetrafluoro-ethoxy)phenyl]methyl]amino]-1,1,1-trifluoro-2-propanol]",% Inhibition of Transfer,CETP,35%
same,inhibition at 60 mg/kg,human CETP (hCETP),40%
same,% Change in Lipoprotein Profile HDL,plasma HDL [1],12%
same,% Change in Lipoprotein Profile LDL,plasma HDL [1],−12%
same,% Change in Lipoprotein Profile VLDL,plasma HDL [1],−22%
same,% Change in Lipoprotein Profile HDL,plasma HDL [2],12%
same,% Change in Lipoprotein Profile LDL,plasma HDL [2],20%
same,Plasma levels of drug,plasma HDL [3],0.1 to 1.5 µg/mL
same,Plasma concentrations of drug (average),"plasma HDL [4]; Alzet pump 30 mg/day/animal up to 14 days, ethanol:propylene glycol vehicle",1.2 µg/mL
same,decrease in HDL compared to pre-dose levels,plasma HDL [4]; [5],12%
same,decrease in total cholesterol compared to pre-dose levels,plasma HDL [4]; [5],19%
same,increase in triglycerides compared to pre-dose levels,plasma HDL [4]; [5],17%
